Consider three molecules from patent publication US20250360205A1, “NOD1 MODULATORS AND USES THEREOF” (Academia Sinica, priority 2022, published 2025).

The target of the test is T1, NOD1 (Homo sapiens, UniProt Q9Y239).
T1 construct: host or cells: HEK-Blue hNOD1 cells (HEK293-derived, with NF-κB-inducible SEAP reporter)
T1 sequence (Q9Y239 1-953): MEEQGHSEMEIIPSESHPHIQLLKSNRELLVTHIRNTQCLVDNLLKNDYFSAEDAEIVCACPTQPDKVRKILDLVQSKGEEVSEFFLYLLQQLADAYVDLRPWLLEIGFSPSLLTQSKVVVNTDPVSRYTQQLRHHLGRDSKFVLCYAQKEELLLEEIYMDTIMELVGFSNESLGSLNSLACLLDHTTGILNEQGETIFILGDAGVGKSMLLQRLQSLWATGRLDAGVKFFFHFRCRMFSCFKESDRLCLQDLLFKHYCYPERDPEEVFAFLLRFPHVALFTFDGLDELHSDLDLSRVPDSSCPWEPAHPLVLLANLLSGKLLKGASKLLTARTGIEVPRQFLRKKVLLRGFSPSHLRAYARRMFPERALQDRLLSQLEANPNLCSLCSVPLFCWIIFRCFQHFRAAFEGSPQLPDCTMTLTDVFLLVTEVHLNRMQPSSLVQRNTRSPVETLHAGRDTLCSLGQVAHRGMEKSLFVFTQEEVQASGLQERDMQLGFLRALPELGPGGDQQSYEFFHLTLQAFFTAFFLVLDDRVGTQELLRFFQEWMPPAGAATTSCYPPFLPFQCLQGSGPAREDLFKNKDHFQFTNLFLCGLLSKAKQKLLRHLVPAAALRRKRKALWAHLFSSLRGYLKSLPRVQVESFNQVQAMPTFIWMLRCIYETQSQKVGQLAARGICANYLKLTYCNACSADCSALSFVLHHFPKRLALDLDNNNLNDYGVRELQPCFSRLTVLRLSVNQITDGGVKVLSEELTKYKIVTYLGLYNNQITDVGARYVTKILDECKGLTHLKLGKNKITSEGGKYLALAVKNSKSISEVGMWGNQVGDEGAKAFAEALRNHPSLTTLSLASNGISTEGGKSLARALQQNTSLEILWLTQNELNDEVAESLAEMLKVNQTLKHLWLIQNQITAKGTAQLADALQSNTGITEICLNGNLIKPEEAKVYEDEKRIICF
Nature of the test: NOD1-induced NF-κB activation assay (SEAP reporter) in HEK-Blue hNOD1 cells. The test is classed as cell-based. As to conditions: 16 h; for NOD1 stimulation potency (NF-κB activity): 0.1 μM, FIG. 1, relative to iE-DAP, C12-iE-DAP, Tri-DAP. Here is the method:
Measurement of NOD1-induced NF-κB Activation Assay
HEK-Blue™ hNOD1 Cells (Invivogen; San Diego, CA, U.S.) were cultured in accordance with the manufacturer's instructions. HEK-Blue™ hNOD1 Cells was assayed for NF-κB transcriptional activity changes upon incubation (3.6×10^5 cells/mL) with iE-DAP, C12-iE-DAP, Tri-DAP (Invivogen, San Diego, CA, U.S.) and other NOD1 agonistic compounds (0.1-10 μM) for 16 h. Secreted embryonic alkaline phosphatase (SEAP) activity was determined in the supernatant in accordance with the manufacturer's instructions. An amount of 20 μL of SEAP-inducer compound or negative control was added to 180 μL of cells in HEK-Blue™ detection medium and incubated at 37° C. for 16 h. Absorbance was measured on a SpectraMax M5 (Molecular Devices, Sunnyvale, CA, U.S.) at 640 nm.

Take `CC(NC(=O)Cc1ccc(-c2ccccc2)cc1)C(=O)NC(CCC(=O)NC(CO)CCCC(N)C(=O)O)C(=O)O` (stereo not drawn) [Compound 14h]: the “NOD1 stimulation potency (NF-κB activity)” value was “decreased dramatically”. Still for that read-out and setting: the value for `COc1ccc(CC(=O)NC(C)C(=O)NC(CCC(=O)NC(CO)CCCC(N)C(=O)O)C(=O)O)cc1` (stereo not drawn) [Compound 14f] was “decreased dramatically”. Regarding `C[C@H](N)C(=O)N[C@H](CCC(=O)N[C@H](CO)CCC[C@@H](N)C(=O)O)C(=O)O` [Compound 6], the “fold increase of NF-κB activity” value (1 μM, FIGS. 2 and 3) turned out to be 20 fold.
